Molecular target: T1, CYP3A4 (Homo sapiens, UniProt P08684)
T1 construct: purchased Corning Life Sciences
Experiment: CYP screening, recombinant CYP3A4
Assay type: in vitro ADME
Experimental: DWP16001, M1, or M2 was incubated with 11 human cDNA-expressed CYP enzymes (1A1, 1A2, 2A6, 2B6, 2C8, 2C9, 2C19, 2D6, 2E1, 3A4, and 3A5) to identify the CYP enzymes involved in the metabolism of DWP16001. Reaction mixtures of 95 µL containing DWP16001 (final concentration: 5 µM), M1 or M2 (final concentration: 10 µM), and CYPs (final amount: 10 pmol) were prepared in 0.1 M potassium phosphate buffer (pH 7.4). The reaction was started by adding 5 µL of NADPH-generating system; the mixtures were incubated for 30 min at 37 °C in triplicate. Reactions were stopped by the addition of 400 µL of ice-cold ketoconazole (internal standard, 200 ng/mL) in ice-cold acetonitrile. Samples were centrifuged at 15,000× g for 8 min at 4 °C. Seventy-five microliter aliquots of the supernatants were diluted with 75 µL of deionized water and analyzed using an LC–MS/MS system.

T1 sequence (P08684 whole entry): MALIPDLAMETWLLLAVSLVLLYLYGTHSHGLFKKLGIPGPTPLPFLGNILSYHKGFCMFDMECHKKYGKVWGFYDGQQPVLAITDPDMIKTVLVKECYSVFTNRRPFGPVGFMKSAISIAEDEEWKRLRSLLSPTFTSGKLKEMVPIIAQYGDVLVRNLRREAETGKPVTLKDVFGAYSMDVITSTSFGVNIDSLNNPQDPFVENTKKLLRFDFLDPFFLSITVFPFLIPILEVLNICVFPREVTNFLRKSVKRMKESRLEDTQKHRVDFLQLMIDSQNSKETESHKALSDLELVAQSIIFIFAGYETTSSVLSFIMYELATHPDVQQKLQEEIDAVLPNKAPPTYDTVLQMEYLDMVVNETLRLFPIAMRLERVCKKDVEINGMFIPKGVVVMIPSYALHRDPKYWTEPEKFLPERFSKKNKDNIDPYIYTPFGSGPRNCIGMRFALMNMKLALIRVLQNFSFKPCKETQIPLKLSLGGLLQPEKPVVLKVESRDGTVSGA

Substrate of CYP3A4: substrate
Compound: OC[C@H]1O[C@@H](c2cc(Cc3ccc(C4CC4)cc3)c(Cl)c3c2CCO3)[C@H](O)[C@@H](O)[C@@H]1O [DWP16001, (2S,3R,4R,5S,6R)-2-(7-chloro-6-(4-cyclopropylbenzyl)-2,3-dihydrobenzofuran-4-yl)-6-(hydroxymethyl)tetrahydro-2H-pyran-3,4,5-triol]

From PMC7558535, “In Vitro Metabolism of DWP16001, a Novel Sodium-Glucose Cotransporter 2 Inhibitor, in Human and Animal Hepatocytes” (Pharmaceutics, 2020)
